Data on 2 molecules can be found in paper PMC9500072, “Topical application of an irreversible small molecule inhibitor of lysyl oxidases ameliorates skin scarring and fibrosis” (Nature Communications, 2022).

In data set [1] the test system is primary dermal fibroblasts. Briefly: Procollagen I FRET measurement, scar-in-a-jar. The data set is classed as cell-based, human. As to conditions: highest dose (10 µM).
The nature of data set [2]: Stability in cream formulations. The data set is classed as physicochemical.
A further data set has as its system Phorbol Ester. The experiment in a line: Eurofins panel 264500. The data set is classed as binding, mouse. The following applies: 10 µM.
The next data set deals with T1, Bovine (aorta) LOX (Bos taurus, UniProt P33072).
T1 construct: Bovine (aorta) LOX used for analog screening due to ready availability; from tissue; host or cells: bovine aorta
T1 sequence (P33072 170-418): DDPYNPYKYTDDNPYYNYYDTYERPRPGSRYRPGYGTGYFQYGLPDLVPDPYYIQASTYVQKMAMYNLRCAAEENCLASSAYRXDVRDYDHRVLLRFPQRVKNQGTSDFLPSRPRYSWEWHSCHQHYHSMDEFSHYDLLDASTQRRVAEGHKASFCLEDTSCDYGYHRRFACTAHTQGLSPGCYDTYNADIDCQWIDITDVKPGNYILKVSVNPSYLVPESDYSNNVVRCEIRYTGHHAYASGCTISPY
The experiment in a line: Amplex Red oxidation assay, LOX inhibition. The data set is classed as biochemical. The method, then: The measurement of the enzymatic activity of all lysyl oxidase family members was based on the detection of hydrogen peroxide with an Amplex-Red oxidation assay, as previously described; miniaturized in 384 well formats, with the appropriate combination of substrate and assay buffer for each individual enzyme. After a 30 min pre-incubation of the enzyme at 37 °C with the test compound (or with different incubation times for the time-dependency assay), one volume of reaction mixture containing 120 μM Amplex Red (AR) (Life Technologies), 1.5 U/mL horseradish peroxidase (HRP) (Sigma-Aldrich) and the specific substrate was added to each sample. The relative fluorescence units (RFU) were then measured every 2.5 min for 30 min at 37 °C, excitation 565 nm and emission 590, on a BMG Clariostar Microplate Reader. All the substrates were used at concentrations corresponding to their Km towards the corresponding enzyme, or with a range of different concentrations for the substrate competition experiments.
Lysyl oxidases assay buffer contained 1.2 M urea, 50 mM sodium borate buffer, pH 8.2 and 100 µM β-aminoproprionitrile (BAPN, Sigma-Aldrich) was used for low control.

The next data set addresses Transporter, GABA (Rattus norvegicus, UniProt P23978). The experiment in a line: Eurofins panel 226400. The data set is classed as binding.
The next data set has as its target Adrenergic α1B (Rattus norvegicus, UniProt P15823). Briefly: Eurofins panel 203200. The data set is classed as binding.
Data set [3] concerns the target Serotonin (5-Hydroxytryptamine) 5-HT2A (Homo sapiens, UniProt P28223). The experiment in a line: Eurofins panel 271650. The data set is classed as binding.
The nature of another data set: Caco-2 permeability. The data set is classed as in vitro ADME. The following applies: human, Caco-2. The method, then:
(§1) The penetration of PXS-6302 across a monolayer of cells was tested using Caco-2 or MDCKII cells transfected with P-glycoprotein (Pgp).
(In general: Caco-2 cells form a polarised layer with tight junctions and transporters.)

For the next data set, the system named is Caco-2 cells. Briefly: Caco-2 permeability. The data set is classed as in vitro ADME. On the procedure:
as §1

Data set [4] can be described thus: Franz Cell skin permeability assay. The data set is classed as in vitro ADME, human. As to conditions: 3% cream on epidermis of human skin ex vivo.

What is called IC50 is the concentration that inhibits the measured activity by half. A word on the inhibition: it is the change of the read-out against control, counted positive when it falls. As usually defined, the Papp is the rate of passage across a membrane or cell layer, normalised by area and donor concentration.

Chain of Adrenergic α1B (P15823 whole entry): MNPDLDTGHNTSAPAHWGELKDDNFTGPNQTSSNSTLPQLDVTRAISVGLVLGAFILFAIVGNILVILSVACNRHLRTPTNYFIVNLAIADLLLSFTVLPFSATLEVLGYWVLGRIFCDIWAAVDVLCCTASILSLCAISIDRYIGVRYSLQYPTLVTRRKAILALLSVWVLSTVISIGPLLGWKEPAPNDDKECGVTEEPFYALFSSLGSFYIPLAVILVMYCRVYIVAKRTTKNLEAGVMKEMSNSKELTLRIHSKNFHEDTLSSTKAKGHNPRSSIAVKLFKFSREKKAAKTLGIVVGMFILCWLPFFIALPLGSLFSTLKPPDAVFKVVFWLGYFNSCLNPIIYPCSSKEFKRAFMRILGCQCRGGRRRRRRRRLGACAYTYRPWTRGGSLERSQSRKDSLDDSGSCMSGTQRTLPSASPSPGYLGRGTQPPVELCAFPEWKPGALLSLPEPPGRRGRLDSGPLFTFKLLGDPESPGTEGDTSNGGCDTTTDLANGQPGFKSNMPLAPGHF
Chain of Serotonin (5-Hydroxytryptamine) 5-HT2A (P28223 whole entry): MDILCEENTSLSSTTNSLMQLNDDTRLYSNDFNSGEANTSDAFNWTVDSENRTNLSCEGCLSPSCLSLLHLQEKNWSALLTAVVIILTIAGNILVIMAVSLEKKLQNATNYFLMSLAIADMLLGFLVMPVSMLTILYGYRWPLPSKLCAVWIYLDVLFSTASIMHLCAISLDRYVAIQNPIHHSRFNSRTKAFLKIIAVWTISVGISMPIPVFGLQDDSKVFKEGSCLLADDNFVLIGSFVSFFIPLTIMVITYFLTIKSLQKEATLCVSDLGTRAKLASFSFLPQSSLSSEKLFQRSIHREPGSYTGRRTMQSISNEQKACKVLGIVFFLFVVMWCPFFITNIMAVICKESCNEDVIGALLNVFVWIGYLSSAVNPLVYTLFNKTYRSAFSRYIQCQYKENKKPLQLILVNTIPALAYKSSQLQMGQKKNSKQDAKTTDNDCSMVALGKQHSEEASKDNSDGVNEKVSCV

Regarding `NC/C=C(\F)CS(=O)(=O)c1ccccc1` [PXS-4787], the “collagen I production (soluble procollagen I)” value in data set [1] is “significant and sustained reduction”. Moreover, the “stability in cream formulations” value in data set [2] was “some unwanted degradation occurred”. Also, in the data set on Phorbol Ester, the “% Inh.” value amounted to 5%. For the same molecule, the IC50 on Bovine (aorta) LOX (30 min pre-incubation) came out at 2 µM. The inhibition at 30 µM at Bovine (aorta) LOX (log conc -4.5229, read-out: Fig 2A inhibition (mean)) is 99.2%. For the same molecule, the inhibition at 10 µM at Bovine (aorta) LOX (log conc -5, read-out: Fig 2A inhibition (mean)) is 92.3%; at Transporter, GABA, 0%; on Adrenergic α1B, -2%. The inhibition at 3.333 µM at Bovine (aorta) LOX (log conc -5.4771, read-out: Fig 2A inhibition (mean)) was 65.8%. Besides, the inhibition at 1.111 µM at Bovine (aorta) LOX (log conc -5.9542, read-out: Fig 2A inhibition (mean)) worked out at 35%. Further, the inhibition at 0.3704 µM on Bovine (aorta) LOX (log conc -6.4313, read-out: Fig 2A inhibition (mean)) was determined as 14.2%. At Bovine (aorta) LOX (log conc -6.9083, read-out: Fig 2A inhibition (mean)), the inhibition at 0.1235 µM was 4.31%. Moreover, the inhibition at 0.0412 µM on Bovine (aorta) LOX (log conc -7.3851, read-out: Fig 2A inhibition (mean)) amounted to 1.21%. Besides, the inhibition at 0.0137 µM at Bovine (aorta) LOX (log conc -7.8633, read-out: Fig 2A inhibition (mean)) was -0.629%. Besides, the inhibition at 0.0046 µM at Bovine (aorta) LOX (log conc -8.3372, read-out: Fig 2A inhibition (mean)) is -1.3%. Moreover, the inhibition at […] at Bovine (aorta) LOX (log conc -8.8239, read-out: Fig 2A inhibition (mean)) was -1.09%. Besides, on Bovine (aorta) LOX (log conc -9.301, read-out: Fig 2A inhibition (mean)), the inhibition at 0.0005 µM is -1.47%.

Take `NC/C=C(\F)C(F)(F)S(=O)(=O)c1ccccc1` [PXS-6302]: in data set [3], the inhibition at 30 µM turned out to be 25%. Besides, in the data set “Caco-2 permeability” (read-out: CaCo2 efflux ratio), the efflux ratio amounted to 0.8. For the same molecule, in the data set “Caco-2 permeability” (read-out: CaCo2 permeability Papp), the Papp turned out to be 34 ×10⁻⁶ cm/s. The “CaCo2 permeability (class in words)” value in the data set on Caco-2 cells was “High and high permeability”. In [4], the “further increase of concentration in reservoir chamber over the next 14 h” value was determined as 10 fold; the “increase of concentration in reservoir chamber between 2 and 6 h” value is listed as 10 fold.
